# Measurements taken from patent publication US20040106644A1, “Composition for treatment of night sight problems(halos, comas and glare) after refractive surgery, intra ocular lens implant after lensectomy or intraocular implant in phakic patients comprising aceclidine employed at low concentrations” (priority 2001, published 2004).
# What was measured:
# healthy people = test: pupillary diameter after instillation in healthy people; type: in vivo, human; settings: ophthalmic composition with aceclidine in very low concentrations, for four to six hours (summary statement)
# Procedure: The two ophthalmic compositions, I and II dilution, were administered firstly to a group of healthy people: one eye was treated with the I dilution composition (0.016%), the second eye with the II dilution composition (0.032%), measuring the pupillary diameter in the same light conditions at 30 minutes, 1-2-3-4-5-6 hours after the first instillation.
# [1] = system: patients who underwent refractive surgery; test: double-masked randomized clinical trial on night sight problems (halos, coma, glare) after refractive surgery; type: in vivo, human
# Procedure: A double-masked randomized clinical trial with 14 patients (27 eyes) has been organized by dividing the patients in three different groups: 8 patients were treated with placebo, 10 patients were treated with a first ophthalmic composition (I dilution), 9 patients were treated with a second ophthalmic composition (II dilution).
# The patients belonging to this trial had to go through an ophthalmic examination: of the haze grading and of natural and corrected visual acuity, intra ocular pressure (IOP), pupillometry in mesopic conditions with split lamp and examination of corneal maps. The anamnestic data about the surgical operation were collected: the refractive surgery technique employed (PRK/LASIK), the date of the surgical operation, data about the corrected optical zone and the ametropy kind. The night sight problems had to be stable for at least three months after the surgical operation for the patient to be included in the trial.
# The patients had to identify the image they perceived before and during the pharmacological treatment, with follow-up examinations fixed every 15-30 days. At the end of the clinical trial the patients had to provide information about the efficacy and duration (in terms of hours) of the treatment, onset time of the effect, changes of the visual capabilities and side effects, if any.
# The ophthalmic compositions were prepared according to the following procedure:
# I dilution, 4 IU of aceclidine 2% were diluted in 5 mL of hyaluronic acid (0.200 g/100 mL)
# II dilution, 8 IU of aceclidine 2% were diluted in 5 mL of hyaluronic acid (0.200 g/100 mL)
# Placebo consisted in 5 mL of hyaluronic acid (0.200 g/100 mL).
# The three ophthalmic compositions (I dilution, II dilution and placebo) were administered to the 14 patients belonging to the clinical trial in a blind way.
# [2] = patients treated with refractive surgery, aceclidine in very low concentrations (summary statement)
smiles,measurement,setting,value
"CC(=O)OC1CN2CCC1CC2 (stereo not drawn) [aceclidine, 3-acetoxyquinuclidine]",pupil diameter reduction,healthy people,2-3 mm
same,side effects in the effective concentration range,[1]; aceclidine 0.016% to 0.040% of total weight,no relevant side effects are detectable
same,duration of action after instillation,"[1]; aceclidine 0.016% to 0.040%, instilled 10-20 minutes before need (summary statement)",4 to 6 h
same,"duration of light, transitory conjunctival hyperemia",[1]; [2],5 to 10 min
same,headache or sight reduction,[1]; [2],no headache or sight reduction
same,"improvement of halos, coma and glare",[1]; [2],statistically significant improvement
